Read-outs that look alike come from different tables or passages of the source.
Columns and labels:
[1] = tested on: HCV genotype 1a (H77 strain) replicon in HUH-7 cells; experiment: HCV replicon luciferase reporter assay, genotype 1a; format: cell-based; settings: Hepatitis C virus, 72 h, genotype 1a replicon, 3 days incubation
Outline: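 Stable HUH-7 line carrying luciferase-reporter genotype 1a (H77) replicon with adaptive NS3 P1496L and NS5A S2204I mutations; 3.0×10^3 cells/well in 4% FCS, 0.5% DMSO, twenty-point 3-fold titration, 3 days at 37 °C. Renilla luminescence with 7.5 μM EnduRen; EC50 by four-parameter logistic fit; CC50 by multiplexed Cell Titer-Blue.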

[2] = tested on: HCV genotype 1b (Con1) replicon in HUH-7 cells; experiment: HCV replicon luciferase reporter assay, genotype 1b; format: cell-based; settings: Hepatitis C virus, 72 h, genotype 1b replicon, 3 days incubation
Outline: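 The HUH-7 cells stably carried a genotype 1b Con1 replicon with a Renilla luciferase reporter and the S1179I adaptive mutation. Luminescence was read after 2 h with 7.5 μM EnduRen, and EC50s came from four-parameter logistic fits.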

| Structure (SMILES) | EC50 ([1]; read-out: LE_1a (EC50, range)) [nM] | EC50 ([2]; read-out: LE_1b (EC50, range)) [nM] | EC50 ([1]; read-out: LE_1a (EC50)) [nM] | EC50 ([2]; read-out: LE_1b (EC50)) [nM] |
| --- | --- | --- | --- | --- |
| C[C@@H]1CC/C=C\[C@@H]2C[C@@]2(C(=O)NS(=O)(=O)C2(C)CC2)NC(=O)[C@@H]2C[C@@H](Oc3nccc4c5c(ccc34)OCCO5)CN2C(=O)[C@@H](NC(=O)OC(C)(C)C(C)(F)F)[C@H](C)O1 [Compound 2010, 3,3-difluoro-2-methylbutan-2-yl ((2R,6S,7S,9R,13aS,14aR,16aS,Z)-2-((2,3-dihydro[1,4]dioxino[2,3-f]isoquinolin-7-yl)oxy)-7,9-dimethyl-14a-(((1-methylcyclopropyl)sulfonyl)carbamoyl)-5,16-dioxo-2,3,5,6,7,9,10,11,13a,14,14a,15,16,16a-tetradecahydro-1H-cyclopropa[i]pyrrolo[1,2-e][1,5,8]oxadiazacyclopentadecin-6-yl)carbamate] | 1.01 to 5 | 0.51 to 1 | – | – |
| COc1ccc2c(O[C@@H]3C[C@H]4C(=O)N[C@]5(C(=O)NS(=O)(=O)C6(C)CC6)C[C@H]5/C=C\CC[C@@H](C)O[C@@H](C)[C@H](NC(=O)OC(C)(C)C(F)(F)F)C(=O)N4C3)nc(-c3ccc(OC(C)C)cn3)cc2c1 [Compound 2011, 1,1,1-trifluoro-2-methylpropan-2-yl ((2R,6S,7S,9R,13a5,14aR,16aS,Z)-2-((3-(5-isopropoxypyridin-2-yl)-6-methoxyisoquinolin-1-yl)oxy)-7,9-dimethyl-14a-(((1-methylcyclopropyl)sulfonyl)carbamoyl)-5,16-dioxo-2,3,5,6,7,9,10,11,13a,14,14a,15,16,16a-tetradecahydro-1H-cyclopropa[i]pyrrolo[1,2-e][1,5,8]oxadiazacyclopentadecin-6-yl)carbamate] | 0.51 to 1 | 0.1 to 0.5 | – | – |
| COc1ccc2c(O[C@@H]3C[C@H]4C(=O)N[C@]5(C(=O)NS(=O)(=O)C6(C)CC6)C[C@H]5/C=C\CC[C@@H](C)O[C@@H](C)[C@H](NC(=O)OC(C)(C)C(C)(F)F)C(=O)N4C3)nc(-c3ccc(OC(C)C)cn3)cc2c1 [Compound 2012, 3,3-difluoro-2-methylbutan-2-yl ((2R,6S,7S,9R,13a5,14aR,16aS,Z)-2-((3-(5-isopropoxypyridin-2-yl)-6-methoxyisoquinolin-1-yl)oxy)-7,9-dimethyl-14a-(((1-methylcyclopropyl)sulfonyl)carbamoyl)-5,16-dioxo-2,3,5,6,7,9,10,11,13a,14,14a,15,16,16a-tetradecahydro-1H-cyclopropa[i]pyrrolo[1,2-e][1,5,8]oxadiazacyclopentadecin-6-yl)carbamate] | 0.1 to 0.5 | 0.1 to 0.5 | – | – |
| COc1ccc2c(O[C@@H]3C[C@H]4C(=O)N[C@]5(C(=O)NS(=O)(=O)C6(CF)CC6)C[C@H]5/C=C\CC[C@@H](C)O[C@@H](C)[C@H](NC(=O)OC(C)(C)C(F)(F)F)C(=O)N4C3)nccc2c1 [Compound 2013, 1,1,1-trifluoro-2-methylpropan-2-yl ((2R,6S,7S,9R,13a5,14aR,16aS,Z)-14a-(((1-(fluoromethyl)cyclopropyl)sulfonyl)carbamoyl)-2-((6-methoxyisoquinolin-1-yl)oxy)-7,9-dimethyl-5,16-dioxo-2,3,5,6,7,9,10,11,13a,14,14a,15,16,16a-tetradecahydro-1H-cyclopropa[i]pyrrolo[1,2-e][1,5,8]oxadiazacyclopentadecin-6-yl)carbamate] | 1.01 to 5 | 0.51 to 1 | – | – |
| COc1ccc2c(O[C@@H]3C[C@H]4C(=O)N[C@]5(C(=O)NS(=O)(=O)C6(CF)CC6)C[C@H]5/C=C\CC[C@@H](C)O[C@@H](C)[C@H](NC(=O)OC(C)(C)C(C)(F)F)C(=O)N4C3)nccc2c1 [Compound 2014, 3,3-difluoro-2-methylbutan-2-yl ((2R,6S,7S,9R,13aS,14aR,16aS,Z)-14a-(((1-(fluoromethyl)cyclopropyl)sulfonyl)carbamoyl)-2-((6-methoxyisoquinolin-1-yl)oxy)-7,9-dimethyl-5,16-dioxo-2,3,5,6,7,9,10,11,13a,14,14a,15,16,16a-tetradecahydro-1H-cyclopropa[i]pyrrolo[1,2-e][1,5,8]oxadiazacyclopentadecin-6-yl)carbamate] | 1.01 to 5 | 0.51 to 1 | 2.38 | 0.66 |
| COc1cnc(O[C@@H]2C[C@H]3C(=O)N[C@]4(C(=O)NS(=O)(=O)C5(CF)CC5)C[C@H]4/C=C\CC[C@@H](C)O[C@@H](C)[C@H](NC(=O)OC(C)(C)C(F)(F)F)C(=O)N3C2)c2ccccc12 [Compound 2015, 1,1,1-trifluoro-2-methylpropan-2-yl ((2R,6S,7S,9R,13a5,14aR,16aS,Z)-14a-(((1-(fluoromethyl)cyclopropyl)sulfonyl)carbamoyl)-2-((4-methoxyisoquinolin-1-yl)oxy)-7,9-dimethyl-5,16-dioxo-2,3,5,6,7,9,10,11,13a,14,14a,15,16,16a-tetradecahydro-1H-cyclopropa[i]pyrrolo[1,2-e][1,5,8]oxadiazacyclopentadecin-6-yl)carbamate] | 1.01 to 5 | 0.51 to 1 | – | – |
| COc1cnc(O[C@@H]2C[C@H]3C(=O)N[C@]4(C(=O)NS(=O)(=O)C5(CF)CC5)C[C@H]4/C=C\CC[C@@H](C)O[C@@H](C)[C@H](NC(=O)OC(C)(C)C(F)F)C(=O)N3C2)c2ccccc12 [Compound 2016, 1,1-difluoro-2-methylpropan-2-yl ((2R,6S,7S,9R,13aS,14aR,16aS,Z)-14a-(((1-(fluoromethyl)cyclopropyl)sulfonyl)carbamoyl)-2-((4-methoxyisoquinolin-1-yl)oxy)-7,9-dimethyl-5,16-dioxo-2,3,5,6,7,9,10,11,13a,14,14a,15,16,16a-tetradecahydro-1H-cyclopropa[i]pyrrolo[1,2-e][1,5,8]oxadiazacyclopentadecin-6-yl)carbamate] | 1.01 to 5 | 0.51 to 1 | – | – |
| COc1cc(F)cc2c(O[C@@H]3C[C@H]4C(=O)N[C@]5(C(=O)NS(=O)(=O)C6(C)CC6)C[C@H]5/C=C\CC[C@@H](C)O[C@@H](C)[C@H](NC(=O)OC(C)(C)C(F)(F)F)C(=O)N4C3)nccc12 [Compound 2017, 1,1,1-trifluoro-2-methylpropan-2-yl ((2R,6S,7S,9R,13aS,14aR,16aS,Z)-2-((7-fluoro-5-methoxyisoquinolin-1-yl)oxy)-7,9-dimethyl-14a-(((1-methylcyclopropyl)sulfonyl)carbamoyl)-5,16-dioxo-2,3,5,6,7,9,10,11,13a,14,14a,15,16,16a-tetradecahydro-1H-cyclopropa[i]pyrrolo[1,2-e][1,5,8]oxadiazacyclopentadecin-6-yl)carbamate] | 0.51 to 1 | 0.1 to 0.5 | 0.89 | 0.42 |
| COc1cc(F)cc2c(O[C@@H]3C[C@H]4C(=O)N[C@]5(C(=O)NS(=O)(=O)C6(C)CC6)C[C@H]5/C=C\CC[C@@H](C)O[C@@H](C)[C@H](NC(=O)OC(C)(C)C(C)(F)F)C(=O)N4C3)nccc12 [Compound 2018, 3,3-difluoro-2-methylbutan-2-yl ((2R,6S,7S,9R,13aS,14aR,16aS,Z)-2-((7-fluoro-5-methoxyisoquinolin-1-yl)oxy)-7,9-dimethyl-14a-(((1-methylcyclopropyl)sulfonyl)carbamoyl)-5,16-dioxo-2,3,5,6,7,9,10,11,13a,14,14a,15,16,16a-tetradecahydro-1H-cyclopropa[i]pyrrolo[1,2-e][1,5,8]oxadiazacyclopentadecin-6-yl)carbamate] | 0.51 to 1 | 0.1 to 0.5 | – | – |
| COc1cc(F)cc2c(O[C@@H]3C[C@H]4C(=O)N[C@]5(C(=O)NS(=O)(=O)C6(C)CC6)C[C@H]5/C=C\CC[C@@H](C)O[C@@H](C)[C@H](NC(=O)OC(C)(C)C(F)F)C(=O)N4C3)nccc12 [Compound 2019, 1,1-difluoro-2-methylpropan-2-yl ((2R,6S,7S,9R,13aS,14aR,16aS,Z)-2-((7-fluoro-5-methoxyisoquinolin-1-yl)oxy)-7,9-dimethyl-14a-(((1-methylcyclopropyl)sulfonyl)carbamoyl)-5,16-dioxo-2,3,5,6,7,9,10,11,13a,14,14a,15,16,16a-tetradecahydro-1H-cyclopropa[i]pyrrolo[1,2-e][1,5,8]oxadiazacyclopentadecin-6-yl)carbamate] | 1.01 to 5 | 0.51 to 1 | – | – |
| COc1cc(F)cc2c(O[C@@H]3C[C@H]4C(=O)N[C@]5(C(=O)NS(=O)(=O)C6(CF)CC6)C[C@H]5/C=C\CC[C@@H](C)O[C@@H](C)[C@H](NC(=O)OC(C)(C)C(F)(F)F)C(=O)N4C3)nccc12 [Compound 2020, 1,1,1-trifluoro-2-methylpropan-2-yl ((2R,6S,7S,9R,13aS,14aR,16aS,Z)-2-((7-fluoro-5-methoxyisoquinolin-1-yl)oxy)-14a-(((1-(fluoromethyl)cyclopropyl)sulfonyl)carbamoyl)-7,9-dimethyl-5,16-dioxo-2,3,5,6,7,9,10,11,13a,14,14a,15,16,16a-tetradecahydro-1H-cyclopropa[i]pyrrolo[1,2-e][1,5,8]oxadiazacyclopentadecin-6-yl)carbamate] | 1.01 to 5 | 0.51 to 1 | – | – |
| COc1cc(F)cc2c(O[C@@H]3C[C@H]4C(=O)N[C@]5(C(=O)NS(=O)(=O)C6(CF)CC6)C[C@H]5/C=C\CC[C@@H](C)O[C@@H](C)[C@H](NC(=O)OC(C)(C)C(C)(F)F)C(=O)N4C3)nccc12 [Compound 2021, 3,3-difluoro-2-methylbutan-2-yl ((2R,6S,7S,9R,13aS,14aR,16aS,Z)-2-((7-fluoro-5-methoxyisoquinolin-1-yl)oxy)-14a-(((1-(fluoromethyl)cyclopropyl)sulfonyl)carbamoyl)-7,9-dimethyl-5,16-dioxo-2,3,5,6,7,9,10,11,13a,14,14a,15,16,16a-tetradecahydro-1H-cyclopropa[i]pyrrolo[1,2-e][1,5,8]oxadiazacyclopentadecin-6-yl)carbamate] | 1.01 to 5 | 0.51 to 1 | – | – |
